Structures are written as SMILES.

T1 sequence (Q92633 whole entry): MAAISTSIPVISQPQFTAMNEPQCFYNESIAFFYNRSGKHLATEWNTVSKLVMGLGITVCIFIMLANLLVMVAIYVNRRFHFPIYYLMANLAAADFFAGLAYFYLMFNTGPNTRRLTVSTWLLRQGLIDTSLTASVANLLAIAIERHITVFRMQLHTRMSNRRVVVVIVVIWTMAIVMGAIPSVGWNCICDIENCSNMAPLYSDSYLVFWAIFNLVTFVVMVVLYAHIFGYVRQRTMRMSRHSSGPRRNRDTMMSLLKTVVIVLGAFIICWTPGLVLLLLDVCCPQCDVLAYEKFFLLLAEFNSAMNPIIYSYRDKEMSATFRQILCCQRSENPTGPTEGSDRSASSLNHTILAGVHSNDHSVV

This assay concerns the target T1, human LPAR1 (Homo sapiens, UniProt Q92633).
T1 construct: expressed in transfected cells
The assay is described as follows: Test Example 1: antagonism against response of LPA-induced increase in intracellular Ca2+ concentration in RH7777 cells stably expressing human LPAR1. To be noted: RH7777 cells stably expressing human LPAR1; Fluo-4 fluorescence, FDSS6000; read-out: IC50 value (concentration producing 50% antagonism against response of LPA-induced increase in intracellular Ca2+ concentration) (converted). Type of assay: cell-based. The method, boiled down:
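RH7777 cells stably transfected with human LPAR1 were preincubated with test compound 30 min at 37 °C in HBSS/20 mM HEPES/probenecid/0.05% BSA buffer, pH 7.4, then LPA-stimulated.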
Take `CCOc1cc(C(C)N(CCCCc2ccccc2F)C(=O)NC2(C(=O)O)CC(F)(F)C2)cc(OCC)c1C` (stereo not shown) [Example 4-8]: the IC50 was 8.87 nM.

On to `CCOc1cc(C(C)N(CCCCc2ccc(F)cc2)C(=O)NC2(C(=O)O)CC(F)(F)C2)cc(OCC)c1C` (stereo not shown) [Example 4-9], for which the IC50 is 11.6 nM.

For the molecule `CCOc1cc(C(C)N(CCCCc2cc(F)cc(F)c2)C(=O)NC2(C(=O)O)CC(F)(F)C2)cc(OCC)c1C` (stereo not shown) [Example 4-10], the IC50 was 26.4 nM.

Consider `CCOc1cc([C@@H](C)N(CCc2ccc(Cl)cc2)C(=O)NC2(C(=O)O)CC(F)(F)C2)cc(OCC)c1C` [Example 4-11], for which the IC50 is 126 nM.

For the molecule `CCOc1cc(C(C)N(CCCc2cccc(C)c2)C(=O)NC2(C(=O)O)CC(F)(F)C2)cc(OCC)c1C` (stereo not shown) [Example 4-13], the IC50 is 59.8 nM.

On to `CCOc1cc([C@@H](C)N(CCCCc2ccccc2C)C(=O)NC2(C(=O)O)CC(F)(F)C2)cc(OCC)c1C` [Example 4-15], for which the IC50 was 32.7 nM.

For `CCOc1cc([C@@H](C)N(CCCCc2cccc(C)c2)C(=O)NC2(C(=O)O)CC(F)(F)C2)cc(OCC)c1C` [Example 4-16], the IC50 was 4.05 nM.

Regarding `CCOc1cc([C@@H](C)N(CCCCc2ccc(C)cc2)C(=O)NC2(C(=O)O)CC(F)(F)C2)cc(OCC)c1C` [Example 4-17], the IC50 was 9.68 nM.

For `CCOc1cc([C@@H](C)N(CCCCc2cccc(OC)c2)C(=O)NC2(C(=O)O)CC(F)(F)C2)cc(OCC)c1C` [Example 4-18, 1-({[(1R)-1-(3,5-Diethoxy-4-Methylphenyl)Ethyl][4-(3-Methoxyphenyl)Butyl]Carbamoyl}Amino)-3,3-Difluorocyclobutane-1-Carboxylic Acid], the IC50 is 18.1 nM.

For the molecule `CCOc1cc([C@@H](C)N(CCCCc2ccc(OC)cc2)C(=O)NC2(C(=O)O)CC(F)(F)C2)cc(OCC)c1C` [Example 4-19], the IC50 is 60.8 nM.

Consider `CCOc1cc([C@@H](C)N(CCc2ccc(OC)cc2)C(=O)NC2(C(=O)O)CC(F)(F)C2)cc(OCC)c1C` [Example 4-20], for which the IC50 is 148 nM.

For the molecule `CCOc1cc([C@@H](C)N(CCC2Cc3ccccc3C2)C(=O)NC2(C(=O)O)CC(F)(F)C2)cc(OCC)c1C` [Example 4-21, 1-({[(1R)-1-(3,5-Diethoxy-4-Methylphenyl)Ethyl][2-(2,3-Dihydro-1H-Inden-2-Yl)Ethyl]Carbamoyl}Amino)-3,3-Difluorocyclobutane-1-Carboxylic Acid], the IC50 was 2.74 nM.

Take `CCOc1cc([C@@H](C)N(CCC2Cc3ccccc3C2)C(=O)NC2(C(=O)O)CC(OC)C2)cc(OCC)c1C(C)=O` (stereo partly shown) [Example 4-22]: the IC50 was 7.62 nM.

For `CCOc1cc([C@@H](C)N(CCC2Cc3ccccc3C2)C(=O)NC2(C(=O)O)CC(OC)C2)cc(OCC)c1C(C)=O` (stereo partly shown) [Example 4-23], the IC50 was 7.17 nM.

For `CCOc1cc([C@@H](C)N(CCC2Cc3ccccc3C2)C(=O)NC2(C(=O)O)CC(OC)C2)c(C)c(OCC)c1C(C)=O` (stereo partly shown) [Example 4-24], the IC50 is 5.57 nM.

Turning to `COc1cc(C(C)N(CCCn2cc(C)cn2)C(=O)NC2(C(=O)O)CC(F)(F)C2)cc(OC)c1C` (stereo not shown) [Example 4-26], the IC50 is 1830 nM.

In the case of `CCOc1cc([C@@H](C)N(CCCc2ccccn2)C(=O)NC2(C(=O)O)CC(F)(F)C2)cc(OCC)c1C` [Example 4-27], the IC50 is 220 nM.

Regarding `CCOc1cc([C@@H](C)N(CCCCc2cccnc2)C(=O)NC2(C(=O)O)CC(F)(F)C2)cc(OCC)c1C` [Example 4-29], the IC50 was 17.6 nM.

Turning to `CCOc1cc([C@@H](C)N(CCCc2ccncc2)C(=O)NC2(C(=O)O)CC(F)(F)C2)cc(COC)c1C` [Example 4-30], the IC50 was 178 nM.

As to `CCOc1cc([C@@H](C)N(CCN2Cc3ccccc3C2)C(=O)NC2(C(=O)O)CC(F)(F)C2)cc(OCC)c1C` [Example 4-31], the IC50 was 28.4 nM.

Regarding `CCOc1cc([C@@H](C)N(Cc2cc3ccccc3[nH]2)C(=O)NC2(C(=O)O)CC(F)(F)C2)cc(OCC)c1C` [Example 4-32], the IC50 is 733 nM.

Take `CCOc1cc([C@@H](C)N(CCCCC2CCNCC2)C(=O)NC2(C(=O)O)CC(F)(F)C2)cc(OCC)c1C` [Example 4-34, 1-({[(1R)-1-(3,5-Diethoxy-4-Methylphenyl)Ethyl][4-(Piperidin-4-Yl)Butyl]Carbamoyl}Amino)-3,3-Difluorocyclobutane-1-Carboxylic Acid]: the IC50 was 7630 nM.

As to `CCOc1cc([C@@H](C)N(CCCc2ccccc2)C(=O)NC2(C(=O)O)CC(F)(F)C2)cc(OCC)c1C(C)=O` [Example 4-35, 1-({[(1R)-1-(4-Acetyl-3,5-Diethoxyphenyl)Ethyl](3-Phenylpropyl) Carbamoyl}Amino)-3,3-Difluorocyclobutane-1-Carboxylic Acid], the IC50 is 2.26 nM.

Regarding `CCOc1cc([C@@H](C)N(CCCc2ccccc2)C(=O)NC2(C(=O)O)CC(F)(F)C2)cc(OCC)c1C` [Example 4-36], the IC50 is 5.7 nM.

On to `CCOc1cc(C(C)N(CCCCCc2ccccc2)C(=O)NC2(C(=O)O)CC(F)(F)C2)cc(OCC)c1C` (stereo not shown) [Example 4-37], for which the IC50 is 30.6 nM.

Take `CCOc1cc([C@@H](C)N(CC(C)CCc2ccccc2)C(=O)NC2(C(=O)O)CC(F)(F)C2)cc(OCC)c1C` (stereo partly shown) [Example 4-38]: the IC50 is 10.5 nM.

On to `CCOc1cc([C@@H](C)N(CC(C)CCc2ccccc2)C(=O)NC2(C(=O)O)Cc3ccccc3C2)cc(OCC)c1C` (stereo partly shown) [Example 4-39], for which the IC50 is 46.4 nM.

Turning to `CCOc1cc([C@@H](C)N(CCCC(C)c2ccccc2)C(=O)NC2(C(=O)O)CC(F)(F)C2)cc(OCC)c1C` (stereo partly drawn) [Example 4-40, 1-({[(1R)-1-(3,5-Diethoxy-4-Methylphenyl)Ethyl](4-Phenylpentyl) Carbamoyl}Amino)-3,3-Difluorocyclobutane-1-Carboxylic Acid], the IC50 was 3.15 nM.

On to `CCOc1cc([C@@H](C)N(CC/C=C(\C)c2ccccc2)C(=O)NC2(C(=O)O)CC(F)(F)C2)cc(OCC)c1C` [Example 4-41], for which the IC50 is 4.16 nM.

Consider `CCOc1cc([C@@H](C)N(CC2CC(c3ccccc3)C2)C(=O)NC2(C(=O)O)CC(F)(F)C2)cc(OCC)c1C` (stereo partly shown) [Example 4-42], for which the IC50 is 25.2 nM.

As to `CCOc1cc([C@@H](C)N(C(=O)NC2(C(=O)O)CC(F)(F)C2)C2CC(Cc3ccccc3)C2)cc(OCC)c1C` (stereo partly shown) [Example 4-43], the IC50 is 37.2 nM.

For the molecule `CCOc1cc([C@@H](C)N(CCCC(F)(F)c2ccccc2)C(=O)N[C@]2(C(=O)O)C[C@@H](OCC)C2)cc(OCC)c1C(C)=O` [Example 4-44, Trans-1-({[(1R)-1-(4-Acetyl-3,5-Diethoxyphenyl)Ethyl](4,4-Difluoro-4-Phenylbutyl) Carbamoyl}Amino)-3-Ethoxycyclobutane-1-Carboxylic Acid], the IC50 is 3.34 nM.

On to `CCOc1cc([C@@H](C)N(CCCC(F)(F)c2ccccc2)C(=O)NC2(C(=O)O)CC2)cc(OCC)c1C(C)=O` [Example 4-45], for which the IC50 is 1.59 nM.

In the case of `CCOc1cc([C@@H](C)N(CCCC(F)(F)c2ccccc2)C(=O)NC2(C(=O)O)CC2)cc(OCC)c1C1CC1` [Example 4-46], the IC50 was 1.21 nM.

On to `CCOc1cc([C@@H](C)N(CCCC(F)(F)c2ccccc2)C(=O)NC2(C(=O)O)CC2)cc(OCC)c1C(C)O` (stereo partly shown) [Example 4-47], for which the IC50 is 10.5 nM.

Take `CCOc1cc(C(C)N(CCCC(F)(F)c2ccccc2)C(=O)NC2(C(=O)O)CC2)cc(OCC)c1C(C)O` (stereo not shown) [Example 4-48]: the IC50 was 2.55 nM.

For the molecule `CCOc1c(C(C)=O)ccc([C@@H](C)N(CCCC(F)(F)c2ccccc2)C(=O)NC2(C(=O)O)CC2)c1C` [Example 4-49], the IC50 was 4.94 nM.

Source of the values: patent publication US12338203B2 (TAISHO PHARMACEUTICAL CO., LTD., priority 2019, dated 2025).
